# Measured values reported in ChEMBL document CHEMBL1149335, “Dual-acting agents that possess free radical scavenging and antithrombotic activities: design, synthesis, and evaluation of phenolic tetrahydro-beta-carboline RGD peptide conjugates” (Bioorg Med Chem Lett, 2006).
# Numbered stars: 1 amine (or outer) side, 2 acyl side, 3 side chain; on linkers, the order of the positions; unused ones are H or OH. Square brackets hold non-standard residues; d marks the D form. Peptide text beside a SMILES is read from it. X1 = COc1cc(C2c3[nH]c4ccccc4c3CC(C(=O)[*:2])N2[*:1])cc(OC)c1O
# What was measured:
# [1] = system: PC-12; test: H2O2 radical scavenging activity assessed in PC12 cells; assay type: functional, cell-based; details: Rattus norvegicus
# [2] = system: PC-12; test: OH radical scavenging activity assessed in PC12 cells; assay type: functional, cell-based; details: Rattus norvegicus
# [3] = species on record: Rattus norvegicus; test: NO radical scavenging activity assessed as inhibition of Ach-induced vasorelaxation in rat aorta at 0.1 uM; assay type: functional
# [4] = species on record: Oryctolagus cuniculus; test: Effect on PAF-induced platelet aggregation in rabbit platelet-rich plasma at 10 uM; assay type: functional
# [5] = species on record: Rattus norvegicus; test: NO radical scavenging activity assessed as inhibition of Ach-induced vasorelaxation in rat aorta at 0.01 uM; assay type: functional
# [6] = species on record: Rattus norvegicus; test: NO radical scavenging activity assessed as inhibition of Ach-induced vasorelaxation in rat aorta at 1 uM; assay type: functional
# [7] = species on record: Oryctolagus cuniculus; test: Effect on ADP-induced platelet aggregation in rabbit platelet-rich plasma at 10 uM; assay type: functional
# [8] = species on record: Oryctolagus cuniculus; test: Effect on ADP-induced platelet aggregation in rabbit platelet-rich plasma at 1 uM; assay type: functional
# [9] = species on record: Oryctolagus cuniculus; test: Effect on ADP-induced platelet aggregation in rabbit platelet-rich plasma at 0.1 uM; assay type: functional
# [10] = species on record: Oryctolagus cuniculus; test: Effect on PAF-induced platelet aggregation in rabbit platelet-rich plasma at 1 uM; assay type: functional
# [11] = species on record: Oryctolagus cuniculus; test: Effect on PAF-induced platelet aggregation in rabbit platelet-rich plasma at 0.1 uM; assay type: functional
# [12] = system: Rattus norvegicus; test: Decrease in weight of wet thrombus in rat at 5 umol/kg; assay type: functional
# [13] = system: Rattus norvegicus; test: Decrease in weight of dry thrombus in rat at 5 umol/kg; assay type: functional
# [14] = system: PC-12; test: NO radical scavenging activity assessed in PC12 cells; assay type: functional, cell-based; details: Rattus norvegicus
SMILES,EC50 [1] [µM],EC50 [2] [µM],inhibition [3] [%],Activity [4] [%],inhibition [5] [%],inhibition [6] [%],Activity [7] [%],Activity [8] [%],Activity [9] [%],Activity [10] [%],Activity [11] [%],Activity [12] [mg],Activity [13] [mg],EC50 [14] [µM]
COc1cc(C2NC(C(=O)N[C@@H](CCCN=C(N)N)C(=O)NCC(=O)N[C@@H](CC(=O)O)C(=O)N[C@@H](Cc3ccccc3)C(=O)O)Cc3c2[nH]c2ccccc32)cc(OC)c1O (some centres undefined) (H-[X1]RGDF-OH),67.9,90.4,73.3,21.52,25.4,90.9,13.11,29.43,38,25.33,36.59,22.09,2.68,92.8
COc1cc(C2N[C@H](C(=O)O)Cc3c2[nH]c2ccccc32)cc(OC)c1O (some centres undefined),43.7,,57.2,36.34,10.9,79.9,27.33,46.65,54.88,51.42,55.8,43.76,7.27,89.7
N=C(N)NCCC[C@H](N)C(=O)NCC(=O)N[C@@H](CC(=O)O)C(=O)N[C@@H](CO)C(=O)O,,,,22.03,,,16.6,39.62,52.5,36.47,56.69,42.9,7.62,
CC(C)[C@H](NC(=O)[C@H](CC(=O)O)NC(=O)CNC(=O)[C@@H](N)CCCNC(=N)N)C(=O)O (H-RGDV-OH),,,,20.01,,,11.65,29.61,51.78,34.84,55.07,35.6,6.43,
COc1cc(C2NC(C(=O)N[C@@H](CCCN=C(N)N)C(=O)NCC(=O)N[C@@H](CC(=O)O)C(=O)N[C@H](C(=O)O)C(C)C)Cc3c2[nH]c2ccccc32)cc(OC)c1O (some centres undefined) (H-[X1]RGDV-OH),33.5,92.3,71.2,25.88,13.3,92.2,14.38,29.6,50.2,35.8,54.06,29.05,4.85,90.3
COc1cc(C2NC(C(=O)N[C@@H](CCCN=C(N)N)C(=O)NCC(=O)N[C@@H](CC(=O)O)C(=O)N[C@@H](CO)C(=O)O)Cc3c2[nH]c2ccccc32)cc(OC)c1O (some centres undefined) (H-[X1]RGDS-OH),30.6,95.4,60.7,28.61,12.8,91.9,11.33,28.31,49.37,34.59,55.62,28.01,5,87.6
N=C(N)NCCC[C@H](N)C(=O)NCC(=O)N[C@@H](CC(=O)O)C(=O)N[C@@H](Cc1ccccc1)C(=O)O (H-RGDF-OH),,,,7.73,,,7.87,22.71,34.99,24.02,40.39,26.68,4.05,
